Experiment: xn = mol fraction of the nth substance listed
Conditions: 100 kPa, Liquid; for mass density: Vibrating tube method; for viscosity: Falling or rolling sphere viscometry

CCCCCCCCCCCCCC[P+](CCCCCC)(CCCCCC)CCCCCC.[Cl-] [trihexyl(tetradecyl)phosphonium chloride] + CO
Conditions | mass density [kg/m3] | viscosity [mPa·s]
290.15 K, x1 = 0.0156 | 815.9 | –
290.15 K, x1 = 0.0351 | 832.7 | –
290.15 K, x1 = 0.056 | 845.2 | –
290.15 K, x1 = 0.0811 | 856.7 | –
290.15 K, x1 = 0.1271 | 869.2 | –
290.15 K, x1 = 0.2092 | 880.2 | –
290.15 K, x1 = 0.3681 | 889.1 | –
290.15 K, x1 = 0.4851 | 891.6 | –
290.15 K, x1 = 0.6453 | 894.2 | –
290.15 K, x1 = 0.7844 | 895.8 | –
290.15 K, x1 = 0.8997 | 896.8 | –
290.15 K, x1 = 1 | 897.5 | –
293.15 K, x1 = 0.0156 | 813.3 | –
293.15 K, x1 = 0.0351 | 830.4 | –
293.15 K, x1 = 0.056 | 842.9 | –
293.15 K, x1 = 0.0811 | 854.5 | –
293.15 K, x1 = 0.1271 | 867.2 | –
293.15 K, x1 = 0.2092 | 878.2 | –
293.15 K, x1 = 0.3681 | 887.2 | –
293.15 K, x1 = 0.4851 | 889.9 | –
293.15 K, x1 = 0.6453 | 892.5 | –
293.15 K, x1 = 0.7844 | 894 | –
293.15 K, x1 = 0.8997 | 895.1 | –
293.15 K, x1 = 1 | 895.8 | –
295.15 K, x1 = 0.0156 | 811.2 | 1.033
295.15 K, x1 = 0.0351 | 828.8 | 1.798
295.15 K, x1 = 0.056 | 841.4 | 3.34
295.15 K, x1 = 0.0811 | 853.1 | 6.279
295.15 K, x1 = 0.1271 | 865.8 | 15.65
295.15 K, x1 = 0.2092 | 876.9 | 45.36
295.15 K, x1 = 0.3681 | 885.9 | 173
295.15 K, x1 = 0.4851 | 888.9 | 401.5
295.15 K, x1 = 0.6453 | 891.4 | 820.4
295.15 K, x1 = 0.7844 | 892.9 | 1285
295.15 K, x1 = 0.8997 | 894 | 1687
295.15 K, x1 = 1 | 894.6 | 1996
298.15 K, x1 = 0.0156 | 809.1 | 0.988
298.15 K, x1 = 0.0351 | 826.4 | 1.695
298.15 K, x1 = 0.056 | 839.2 | 3.092
298.15 K, x1 = 0.0811 | 851 | 5.794
298.15 K, x1 = 0.1271 | 863.8 | 14.29
298.15 K, x1 = 0.2092 | 875 | 40.2
298.15 K, x1 = 0.3681 | 884 | 149.2
298.15 K, x1 = 0.4851 | 887.1 | 339.2
298.15 K, x1 = 0.6453 | 889.7 | 670
298.15 K, x1 = 0.7844 | 891.2 | 1046
298.15 K, x1 = 0.8997 | 892.1 | 1392
298.15 K, x1 = 1 | 892.8 | 1683
303.15 K, x1 = 0.0156 | 804.8 | 0.911
303.15 K, x1 = 0.0351 | 822.4 | 1.542
303.15 K, x1 = 0.056 | 835.4 | 2.704
303.15 K, x1 = 0.0811 | 847.4 | 5.089
303.15 K, x1 = 0.1271 | 860.4 | 12.28
303.15 K, x1 = 0.2092 | 871.8 | 33.24
303.15 K, x1 = 0.3681 | 880.9 | 116.2
303.15 K, x1 = 0.4851 | 884 | 255.5
303.15 K, x1 = 0.6453 | 886.7 | 486.4
303.15 K, x1 = 0.7844 | 888.2 | 744.5
303.15 K, x1 = 0.8997 | 889.1 | 978.6
303.15 K, x1 = 1 | 889.8 | 1174
308.15 K, x1 = 0.0156 | 800.5 | 0.842
308.15 K, x1 = 0.0351 | 818.5 | 1.407
308.15 K, x1 = 0.056 | 831.6 | 2.287
308.15 K, x1 = 0.0811 | 843.9 | 4.496
308.15 K, x1 = 0.1271 | 857.1 | 10.64
308.15 K, x1 = 0.2092 | 868.5 | 27.72
308.15 K, x1 = 0.3681 | 877.8 | 90.86
308.15 K, x1 = 0.4851 | 881 | 197.3
308.15 K, x1 = 0.6453 | 883.7 | 363.3
308.15 K, x1 = 0.7844 | 885.3 | 543.1
308.15 K, x1 = 0.8997 | 886.2 | 700
308.15 K, x1 = 1 | 886.9 | 824.1
313.15 K, x1 = 0.0156 | 796.3 | 0.79
313.15 K, x1 = 0.0351 | 814.5 | 1.289
313.15 K, x1 = 0.056 | 827.9 | 1.901
313.15 K, x1 = 0.0811 | – | 4.071
313.15 K, x1 = 0.1271 | – | 9.437
313.15 K, x1 = 0.2092 | 865.3 | 23.32
313.15 K, x1 = 0.3681 | 874.5 | 81.39
313.15 K, x1 = 0.4851 | 878.6 | 151.5
313.15 K, x1 = 0.6453 | 880.8 | 271.4
313.15 K, x1 = 0.7844 | 882.6 | 396.8
313.15 K, x1 = 0.8997 | 883.2 | 505.7
313.15 K, x1 = 1 | 883.9 | 593.7
